In patent US5624673A, “Cosmetic or pharmaceutical composition containing a prunella extract” (priority 1993, dated 1997):
Several values for one entry are separate records, joined by “and”; a condition that tells them apart may be missing. Equal values may be shown once.

System: erythema caused by ultraviolet
Test: Anti-inflammatory activity on the erythema caused by ultraviolet
Format: in vivo, Dunkin Hartley guinea-pigs
Settings: 1% in hydrocerine
Description: This is investigated using 41 female Dunkin Hartley guinea-pigs weighing 400 to 450 g, divided into 6 groups of 6 and one group of 5 guinea-pigs.
For one week before the start of the experiment, the animals are kept at a temperature of 20° plus or minus 1° C. and at a hygrometry of 50% plus or minus 10% and with 12 h of light per day. On the day before the experiment, the animals are carefully shaved on the back using an AESCULAP shaver equipped with a 1/10 mm comb, and then shaved gently on both sides using a Braun razor. A depilating cream is subsequently applied (to a thickness of about 2 mm) and allowed to work for 15 min.
The cream is removed with a wooden spatula and the guinea-pigs are then rinsed with tepid water and dried.
The guinea-pigs then receive the same irradiation on both sides, the area of the irradiated regions being 2 cm^2. The right side receives the test product, the product being spread beyond the 2 cm^2 so as to make it possible to observe any redness which might be due to the product and which would mask an antiphlogistic effect. The left side receives the placebo.
Application of the placebo to the left side enables the effect of UV to be measured under the same conditions on the zones treated with the product and on the untreated zones. This also makes it possible to see any action of the placebo and to assess, in comparison with the placebo, the zone to which the product has been applied.
The products are applied immediately after irradiation and then every 2 h up to 6 h after irradiation.
The amount applied is not measured but is spread uniformly over the whole region (about 1 mg).
The irradiation device used consists of a Biotronic UV312-365 mercury lamp (Vilbert-Loumat). The device for measuring the UV energy, which consists of a photoelectric cell measuring the luminous power of the UV, is fixed to a support at the center of the irradiated zone. This cell is connected to a radiometer on which the desired energy--in this case 2.16 J/cm^2 of UVB (distance from guinea-pig to lamp=20 cm)--is programmed. The lamp switches off automatically once the total amount of energy has been emitted.
This irradiation causes an erythema equal to 3 plus or minus 0.5 (see scale) at 6 h.
20 min before irradiation, the animals are anesthetized with an intraperitoneal dose of 0.5 ml/kg of pentobarbital sodium.
Six hours after irradiation, the erythema in each region is evaluated macroscopically according to the following scale:
0 ............... no erythema
1 ............... slight but visible erythema
2 ............... clearly visible erythema
3 ............... substantial erythema
One guinea-pig with a score of 1 according to the above notation, one guinea-pig with a score of 2 and one guinea-pig with a score of 3 are singled out after having been thoroughly evaluated as such, and are taken as standard references so that half-unit scores can be awarded. A guinea-pig not evaluated with 1 (standard reference) and not evaluated with 2 will be given a score of 1.5.
The results obtained are used to calculate the percentage activity according to the following formula: [formula]
The tested extracts according to the invention are in a concentration of 0.2% by weight in the gel. The indomethacin is in a concentration of 1% in the hydrocerine.

SMILES: COc1ccc2c(c1)c(CC(=O)O)c(C)n2C(=O)c1ccc(Cl)cc1 [Indomethacin, indomethacin]
- difference (UV+placebo)-(UV+product), individual animal: 2.5 and 2 and 3
- Erythema score, product side (individual animal) (6 h after UVB 2.16 J/cm^2, scale 0-3): 0.5 and 1 and 0
- Erythema score, product side, mean (SD 0.41, placebo mean 2.9, significant at 0.1% (Student t 11.18)): 0.4
- difference (UV+placebo)-(UV+product), mean (SD 0.5): 2.5
- protection (percentage activity) (significant at 0.1%): 86.2%
